Measured values reported in ChEMBL document CHEMBL2029272, “7-Azabicyclo[2.2.1]heptane as a scaffold for the development of selective sigma-2 (σ2) receptor ligands” (Bioorg Med Chem Lett, 2012).

What was measured:
[1] = Inhibition of NMDA receptor PCP binding site at 10 uM
[2] = target: Sodium-dependent serotonin transporter (Homo sapiens, UniProt P31645); test: Inhibition of SERT
[3] = target: T1, Sodium-dependent dopamine transporter (Homo sapiens, UniProt Q01959); test: Inhibition of DAT at 10 uM
[4] = Displacement of [3H]DTG from sigma2 receptor in […]; type: cell-based; conditions: pc-12
[5] = target: Sodium-dependent noradrenaline transporter (Homo sapiens) (UniProt P23975); test: Inhibition of NET at 10 uM
[6] = target: D(2) dopamine receptor (Homo sapiens, UniProt P14416); test: Inhibition of D2 dopamine receptor
[7] = target: D(1B) dopamine receptor (Homo sapiens, UniProt P21918); test: Inhibition of D5 dopamine receptor at 10 uM
[8] = target: T1, Sodium-dependent dopamine transporter; test: Inhibition of DAT
[9] = target: T2, Histamine H3 receptor (Homo sapiens, UniProt Q9Y5N1); test: Inhibition of H3 receptor at 10 uM
[10] = target: Sigma non-opioid intracellular receptor 1 (Rattus norvegicus, UniProt Q9R0C9); test: Displacement of [3H](+)-pentazocine from sigma1 receptor in rat brain homogenate; type: tissue-based
[11] = target: T2, Histamine H3 receptor; test: Inhibition of H3 receptor
[12] = system: PC-12; test: Displacement of [3H]DTG from sigma2 receptor in […] at 10 uM; type: cell-based

T1 sequence (Q01959 whole entry): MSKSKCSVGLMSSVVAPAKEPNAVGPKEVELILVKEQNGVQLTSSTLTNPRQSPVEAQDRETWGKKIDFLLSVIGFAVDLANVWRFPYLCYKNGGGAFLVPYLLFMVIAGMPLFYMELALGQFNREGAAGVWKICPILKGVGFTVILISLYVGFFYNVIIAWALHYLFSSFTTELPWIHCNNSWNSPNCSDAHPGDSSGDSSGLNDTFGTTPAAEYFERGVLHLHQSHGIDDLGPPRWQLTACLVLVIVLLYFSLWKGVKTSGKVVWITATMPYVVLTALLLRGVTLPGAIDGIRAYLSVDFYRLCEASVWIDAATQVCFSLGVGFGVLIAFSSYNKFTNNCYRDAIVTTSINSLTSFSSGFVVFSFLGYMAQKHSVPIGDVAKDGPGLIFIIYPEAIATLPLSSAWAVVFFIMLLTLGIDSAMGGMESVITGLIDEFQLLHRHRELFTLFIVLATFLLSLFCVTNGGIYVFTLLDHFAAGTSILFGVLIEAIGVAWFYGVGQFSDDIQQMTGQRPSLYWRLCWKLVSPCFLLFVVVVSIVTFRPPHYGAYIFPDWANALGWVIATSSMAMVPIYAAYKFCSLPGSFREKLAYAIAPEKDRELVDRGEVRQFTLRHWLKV
Chain of Sigma non-opioid intracellular receptor 1 (Q9R0C9 whole entry): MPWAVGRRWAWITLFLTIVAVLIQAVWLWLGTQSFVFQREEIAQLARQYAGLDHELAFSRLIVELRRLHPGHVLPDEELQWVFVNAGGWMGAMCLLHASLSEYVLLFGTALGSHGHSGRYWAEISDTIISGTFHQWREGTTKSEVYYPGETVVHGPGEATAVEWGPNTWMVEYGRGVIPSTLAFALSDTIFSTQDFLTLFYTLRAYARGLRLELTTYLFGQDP
Chain of D(2) dopamine receptor (P14416 whole entry): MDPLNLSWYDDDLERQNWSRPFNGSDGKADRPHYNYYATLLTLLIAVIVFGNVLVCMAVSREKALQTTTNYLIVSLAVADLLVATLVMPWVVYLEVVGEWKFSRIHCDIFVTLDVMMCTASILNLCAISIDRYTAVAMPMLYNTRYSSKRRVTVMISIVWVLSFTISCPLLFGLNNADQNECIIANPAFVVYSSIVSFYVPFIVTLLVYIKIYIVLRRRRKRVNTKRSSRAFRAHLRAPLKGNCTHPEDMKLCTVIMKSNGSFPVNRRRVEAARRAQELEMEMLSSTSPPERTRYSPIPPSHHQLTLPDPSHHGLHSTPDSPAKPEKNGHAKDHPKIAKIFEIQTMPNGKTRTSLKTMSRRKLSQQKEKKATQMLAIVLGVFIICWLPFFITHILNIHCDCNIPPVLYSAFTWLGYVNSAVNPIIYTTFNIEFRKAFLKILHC
Chain of Sodium-dependent noradrenaline transporter (Homo sapiens) (P23975 whole entry): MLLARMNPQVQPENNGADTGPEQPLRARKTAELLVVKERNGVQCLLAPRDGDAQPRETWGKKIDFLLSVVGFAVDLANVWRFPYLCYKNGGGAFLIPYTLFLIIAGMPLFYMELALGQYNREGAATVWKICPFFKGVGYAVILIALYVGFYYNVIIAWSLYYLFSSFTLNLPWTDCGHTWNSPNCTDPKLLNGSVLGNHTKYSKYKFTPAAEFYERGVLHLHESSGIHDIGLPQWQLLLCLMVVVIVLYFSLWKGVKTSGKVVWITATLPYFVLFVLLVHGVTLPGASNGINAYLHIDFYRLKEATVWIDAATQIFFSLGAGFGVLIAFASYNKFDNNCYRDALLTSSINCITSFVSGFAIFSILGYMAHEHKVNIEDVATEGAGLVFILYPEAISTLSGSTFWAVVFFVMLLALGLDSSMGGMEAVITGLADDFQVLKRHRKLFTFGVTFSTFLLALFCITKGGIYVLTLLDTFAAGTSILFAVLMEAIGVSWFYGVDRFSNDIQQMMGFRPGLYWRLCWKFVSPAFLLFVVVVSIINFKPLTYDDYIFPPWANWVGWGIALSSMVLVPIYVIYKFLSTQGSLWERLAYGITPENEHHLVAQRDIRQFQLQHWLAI
T2 sequence (Q9Y5N1 whole entry): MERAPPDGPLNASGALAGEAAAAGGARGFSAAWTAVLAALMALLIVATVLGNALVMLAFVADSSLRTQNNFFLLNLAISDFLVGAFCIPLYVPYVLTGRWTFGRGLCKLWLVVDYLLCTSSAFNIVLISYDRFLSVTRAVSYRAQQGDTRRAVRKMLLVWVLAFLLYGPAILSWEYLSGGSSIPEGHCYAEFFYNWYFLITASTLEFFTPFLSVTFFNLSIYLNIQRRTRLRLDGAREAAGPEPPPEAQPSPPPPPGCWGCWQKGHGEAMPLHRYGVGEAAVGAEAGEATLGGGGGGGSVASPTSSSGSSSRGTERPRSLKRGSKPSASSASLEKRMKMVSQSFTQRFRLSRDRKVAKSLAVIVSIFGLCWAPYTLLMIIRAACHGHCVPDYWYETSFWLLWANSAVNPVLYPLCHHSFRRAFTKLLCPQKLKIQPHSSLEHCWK
Chain of Sodium-dependent serotonin transporter (P31645 whole entry): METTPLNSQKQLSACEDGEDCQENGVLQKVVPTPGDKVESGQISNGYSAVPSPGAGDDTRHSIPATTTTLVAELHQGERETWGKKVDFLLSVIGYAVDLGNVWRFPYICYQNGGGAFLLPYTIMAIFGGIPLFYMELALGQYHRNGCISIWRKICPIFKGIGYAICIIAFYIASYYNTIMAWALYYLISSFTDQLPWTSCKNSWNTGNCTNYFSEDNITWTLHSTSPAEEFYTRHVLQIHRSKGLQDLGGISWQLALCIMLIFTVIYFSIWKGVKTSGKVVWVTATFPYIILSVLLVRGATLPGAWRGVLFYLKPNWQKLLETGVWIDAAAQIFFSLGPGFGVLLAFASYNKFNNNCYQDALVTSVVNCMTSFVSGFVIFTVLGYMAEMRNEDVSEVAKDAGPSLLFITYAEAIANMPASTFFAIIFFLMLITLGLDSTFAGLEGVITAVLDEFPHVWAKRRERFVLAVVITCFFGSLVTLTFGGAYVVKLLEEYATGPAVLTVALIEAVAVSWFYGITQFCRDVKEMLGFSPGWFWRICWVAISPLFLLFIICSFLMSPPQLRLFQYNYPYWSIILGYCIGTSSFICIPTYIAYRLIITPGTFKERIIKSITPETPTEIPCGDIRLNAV
Chain of D(1B) dopamine receptor (P21918 whole entry): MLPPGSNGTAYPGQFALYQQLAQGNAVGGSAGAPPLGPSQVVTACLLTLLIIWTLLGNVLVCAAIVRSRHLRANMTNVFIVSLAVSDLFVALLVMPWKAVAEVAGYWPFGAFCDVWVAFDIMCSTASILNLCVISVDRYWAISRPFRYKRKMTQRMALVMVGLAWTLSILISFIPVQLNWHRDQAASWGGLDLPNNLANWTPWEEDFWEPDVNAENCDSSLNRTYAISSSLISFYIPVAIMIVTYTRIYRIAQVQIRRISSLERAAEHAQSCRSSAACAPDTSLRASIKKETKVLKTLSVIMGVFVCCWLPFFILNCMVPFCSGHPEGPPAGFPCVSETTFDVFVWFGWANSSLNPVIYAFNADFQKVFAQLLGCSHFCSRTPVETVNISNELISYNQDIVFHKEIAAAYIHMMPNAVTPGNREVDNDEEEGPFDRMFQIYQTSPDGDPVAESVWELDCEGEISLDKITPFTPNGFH

`COc1ccc(CN2CCCC2)cc1OC` gave an inhibition [1] of less than 50%, a Ki [2] greater than 10000 nM and an inhibition [3] of less than 50%. The Ki [4] was 661 nM and the inhibition [5] was less than 50%.

`c1ccc(CCN2CCCC2)nc1` gave a Ki [6] greater than 10000 nM, an inhibition [1] of less than 50% and a Ki [2] greater than 10000 nM. The inhibition [3] was less than 50%, the Ki [4] was 3520 nM and the inhibition [5] was less than 50%.

With `c1ccc(CN2CCCC2)cc1` the inhibition [7] was less than 50%, the inhibition [1] was less than 50% and the Ki [2] was greater than 10000 nM. For the same molecule, the inhibition [3] was less than 50%, the Ki [4] was 852 nM and the inhibition [5] was less than 50%.

For `Fc1cccc(CCCN2CCCC2)c1`, the Ki [8] was 3310 nM, the Ki [6] was 9910 nM and the inhibition [1] was less than 50%. The Ki [2] was 4360 nM, the Ki [4] was 39 nM and the inhibition [5] was less than 50%.

`c1ccc(CCN2CCCC2)cc1` gave a Ki [8] of 2730 nM, an inhibition [1] of less than 50% and a Ki [2] greater than 10000 nM. For the same molecule, the Ki [4] was 658 nM and the inhibition [5] was less than 50%.

With `c1cncc(CN2C3CCC2CC3)c1` the Ki [6] was greater than 10000 nM, the inhibition [1] was less than 50% and the inhibition [9] was less than 50%. For the same molecule, the inhibition [3] was less than 50%, the Ki [4] was 6350 nM and the inhibition [5] was less than 50%.

`Fc1cccc(CCN2C3CCC2CC3)c1` showed a Ki [6] greater than 10000 nM, an inhibition [1] of less than 50% and an inhibition [9] of less than 50%. It also gave an inhibition [3] of less than 50%, a Ki [10] of 103 nM and a Ki [4] of 29.5 nM. It also gave an inhibition [5] of less than 50%.

Molecule `c1ccc(CN2C3CCC2CC3)cc1` has a Ki [6] greater than 10000 nM, an inhibition [1] of less than 50% and a Ki [2] greater than 10000 nM. For the same molecule, the inhibition [3] was less than 50%, the Ki [4] was 399 nM and the inhibition [5] was less than 50%.

For `Fc1cccc(CN2C3CCC2CC3)c1`, the Ki [6] was greater than 10000 nM, the inhibition [1] was less than 50% and the Ki [2] was greater than 10000 nM. For the same molecule, the inhibition [9] was less than 50%, the inhibition [3] was less than 50% and the Ki [4] was 251 nM. The inhibition [5] was less than 50%.

In the case of `Fc1cccc(CN2CCCC2)c1`, the inhibition [1] is reported as less than 50%, the Ki [2] is reported as greater than 10000 nM and the inhibition [3] is reported as less than 50%. It also gave a Ki [4] of 1610 nM and an inhibition [5] of less than 50%.

For `Fc1cccc(CCN2CCCC2)c1`, the Ki [8] was 2310 nM, the Ki [6] was greater than 10000 nM and the inhibition [1] was less than 50%. The Ki [2] was greater than 10000 nM, the Ki [4] was 246 nM and the inhibition [5] was less than 50%.

`c1ccc(CCN2C3CCC2CC3)nc1` gave a Ki [6] greater than 10000 nM, an inhibition [1] of less than 50% and an inhibition [9] of less than 50%. For the same molecule, the inhibition [3] was less than 50%, the Ki [10] was 3830 nM and the Ki [4] was 517 nM. For the same molecule, the inhibition [5] was less than 50%.

In the case of `Fc1cccc(CCCN2C3CCC2CC3)c1`, the Ki [6] is reported as greater than 10000 nM, the inhibition [1] is reported as less than 50% and the inhibition [9] is reported as less than 50%. For the same molecule, the inhibition [3] was less than 50%, the Ki [10] was 120 nM and the Ki [4] was 11.9 nM. It also gave an inhibition [5] of less than 50%.

In the case of `COc1ccc(CN2C3CCC2CC3)cc1OC`, the Ki [6] is reported as greater than 10000 nM, the inhibition [1] is reported as less than 50% and the Ki [2] is reported as greater than 10000 nM. It also gave an inhibition [9] of less than 50%, an inhibition [3] of less than 50% and a Ki [4] of 43.1 nM. The inhibition [5] was less than 50%.

With `c1ccc(CCN2C3CCC2CC3)cc1` the Ki [6] was greater than 1000 nM, the Ki [11] was 7770 nM and the inhibition [1] was less than 50%. The inhibition [3] was less than 50%, the Ki [10] was 276 nM and the Ki [4] was 131 nM. The inhibition [5] was less than 50%.

Work on `c1cncc(CN2CCCC2)c1` yielded an inhibition [1] of less than 50%, an inhibition [12] of less than 50% and a Ki [2] greater than 10000 nM. For the same molecule, the inhibition [3] was less than 50% and the inhibition [5] was less than 50%.
